Test [1] relates to Aβ42. The test is described as follows: Screening for γ-secretase-modulating activity, Method 1: Aβ42 sandwich ELISA on SKNBE2 cell media. Type of test: cell-based. The conditions noted are these: SKNBE2 cells carrying APP 695 wild type. The essentials:
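SKNBE2 cells expressing wild-type APP695 were treated with compound for 18 h in Ultraculture/1% glutamine. Secreted Aβ42 was quantified by sandwich ELISA (C-terminal capture, biotinylated 3D6, TMB, 450 nm), with WST-1 used as a toxicity check. IC50 was derived from 4-parameter fits of % inhibition or % of untreated control.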
A general note: An ELISA detects its analyte on a solid surface through an enzyme-linked reagent.

Test [2] has as its system Aβtotal. Put plainly: Screening for γ-secretase-modulating activity, Method 1: Aβtotal sandwich ELISA on SKNBE2 cell media. Type of test: cell-based. The conditions noted are these: SKNBE2 cells carrying APP 695 wild type. An outline of the steps: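 SKNBE2 cells expressing wild-type APP 695 were treated with compound for 18 hours. Aβtotal in the medium was measured by sandwich ELISA (6E10 capture, biotinylated 4G8 detection, fluorogenic peroxidase read-out). IC50 came from a 4-parameter fit of % inhibition with top/bottom fixed at 100/0 and Hill slope 1, or as averaged IC50 from % of untreated control.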

Test [3] concerns Aβtotal. The test is described as follows: In vivo efficacy Method 1: brain soluble Aβtotal by ELISA. Also noted: species or system mouse. As to conditions: Table 4a, single oral dose, overnight fasted animals, sacrificed after 4 h, soluble fraction of brain homogenates. From the text: (§1) To determine whether acute administration of an Aβ42 lowering agent would reduce Aβ42 levels in vivo, non-transgenic rodents, e.g. mice or rats were used. Alternatively, two to three month old Tg2576 mice expressing APP695 containing the “Swedish” variant can be used or a transgenic mouse model developed by Dr. Fred Van Leuven (K.U. Leuven, Belgium) and co-workers, with neuron-specific expression of a clinical mutant of the human amyloid precursor protein [V717I] […] Young transgenic mice have high levels of Aβ in the brain but no detectable Aβ deposition. At approximately 6-8 months of age, the transgenic mice start to display spontaneous, progressive accumulation of β-amyloid (Aβ) in the brain, eventually resulting in amyloid plaques within the subiculum, hippocampus and cortex. Animals treated with the Aβ42 lowering agent were examined and compared to those untreated or treated with vehicle and brain levels of soluble Aβ42 and total Aβ would be quantitated by standard techniques, for example, using ELISA.
(§2) A typical protocol for measuring Aβ42 lowering in vivo is shown but it is only one of many variations that could be used to optimize the levels of detectable Aβ. For example, Aβ42 lowering compounds were formulated in 20% of Captisol® (a sulfobutyl ether of β-cyclodextrin) in water or 20% hydroxypropyl β cyclodextrin. The Aβ42 lowering agents were administered as a single oral dose or by any acceptable route of administration to overnight fasted animals. After 4 h, the animals were sacrificed and Aβ42 levels were analysed.
(§3) Blood was collected by decapitation and exsanguinations in EDTA-treated collection tubes. Blood was centrifuged at 1900 g for 10 minutes (min) at 4° C. and the plasma recovered and flash frozen for later analysis. The brain was removed from the cranium and hindbrain. The cerebellum was removed and the left and right hemisphere were separated. The left hemisphere was stored at −18° C. for quantitative analysis of test compound levels. The right hemisphere was rinsed with phosphate-buffered saline (PBS) buffer and immediately frozen on dry ice and stored at −80° C. until homogenization for biochemical assays.
(§4) All samples were sonicated for 30 seconds on ice at 20% power output (pulse mode). Homogenates were centrifuged at 221.300×g for 50 min. The resulting high speed supernatants were then transferred to fresh tubes and were optionally further purified before the next step. A portion of the supernatant was neutralized with 10% 0.5 M Tris-HCl and this was used to quantify Aβtotal.
The obtained supernatants were purified with Water Oasis HLB reverse phase columns (Waters Corp., Milford, Mass.) to remove non-specific immunoreactive material from the brain lysates prior subsequent Aβ detection. Using a vacuum manifold, all solutions were passed through the columns at a rate of approximately 1 ml per min, so the vacuum pressure was adjusted accordingly throughout the procedure. Columns were preconditioned with 1 ml of 100% MeOH, before equilibration with 1 ml of H2O, Non-neutralized brain lysates were loaded onto the columns. The loaded samples were then washed twice with the first wash performed with 1 ml of 5% MeOH, and the second wash with 1 ml of 30% MeOH. Finally, the Aβ was eluted from the columns and into 100×30 mm glass tubes, with a solution of 90% MeOH with 2% NH4OH. The eluate was then transferred into 1.5 ml tubes and concentrated in a speed-vac concentrator on high heat for about 1.5-2 h at 70° C. The concentrated Aβ was then resuspended in UltraCULTURE General Purpose Serum-Free Medium (Cambrex Corp., Walkersville, Md.) plus Protease Inhibitors added. […]

Test [4] concerns Aβ42. The test is described as follows: In vivo efficacy Method 1: brain soluble Aβ42 by ELISA. The conditions noted are these: Table 4a, single oral dose, overnight fasted animals, sacrificed after 4 h, soluble fraction of brain homogenates. Details: species or system mouse.
Description: as §1, §2, §3, §4
The obtained supernatants were purified with Water Oasis HLB reverse phase columns (Waters Corp., Milford, Mass.) to remove non-specific immunoreactive material from the brain lysates prior subsequent Aβ detection. Using a vacuum manifold, all solutions were passed through the columns at a rate of approximately 1 ml per min, so the vacuum pressure was adjusted accordingly throughout the procedure. Columns were preconditioned with 1 ml of 100% MeOH, before equilibration with 1 ml of H2O, Non-neutralized brain lysates were loaded onto the columns. The loaded samples were then washed twice with the first wash performed with 1 ml of 5% MeOH, and the second wash with 1 ml of 30% MeOH. Finally, the Aβ was eluted from the columns and into 100×30 mm glass tubes, with a solution of 90% MeOH with 2% NH4OH. The eluate was then transferred into 1.5 ml tubes and concentrated in a speed-vac concentrator on high heat for about 1.5-2 h at 70° C. The concentrated Aβ was then resuspended in UltraCULTURE General Purpose Serum-Free Medium (Cambrex Corp., Walkersville, Md.) plus Protease Inhibitors added.
To quantify the amount of Aβ42 in the soluble fraction of the brain homogenates, commercially available Enzyme-Linked-Immunosorbent-Assay (ELISA) kits were used (e.g. Innotest® β-Amyloid(1-42), Innogenetics N.V., Ghent, Belgium). The Aβ42 ELISA was performed using the plate provided with the kit only.

The mark [5] stands for this setting: Table 3a, 18 hours, XLfit, top/bottom fixed to 100 and 0, hill slope 1.
Where [6] appears, read: Table 3b, non-linear regression of % of control, averaged IC50 values.

One may read the IC50 as the point on the concentration scale where inhibition reaches its midpoint. Read a high IC50 as weaker potency. With `COc1cc(Nc2cccc3oc(-c4ccc(F)cc4)nc23)ccc1-n1cnc(C)c1` [Compound 80], the IC50 in the test on Aβ42 [1] (setting [5]) is 1850 nM; in the test on Aβ42 [1] (setting [6]), 1740 nM; in the test on Aβtotal [2] (setting [5]) it was more than 30000 nM; with Aβtotal [2] (setting [6]) it was more than 10000 nM. The “Aβtotal (% Ctrl) _Mean” value with Aβtotal [3] is listed as 102 % Ctrl. Also, the “Aβ42 (% Ctrl) _Mean” value in the test with Aβ42 [4] came to 97 % Ctrl.

In the case of `COc1cc(Nc2cccc3oc(Cc4ccc(F)cc4)nc23)ccc1-n1cnc(C)c1` [Compound 82], the IC50 is 147 nM in the test on Aβ42 [1] (setting [5]), 141 nM in the test on Aβ42 [1] (setting [6]), more than 3000 nM in the test on Aβtotal [2] (setting [5]) and more than 3000 nM in the test with Aβtotal [2] (setting [6]). Besides, in the test with Aβtotal [3], the “Aβtotal (% Ctrl) _Mean” value is reported as 96 % Ctrl. Further, in the test with Aβ42 [4], the “Aβ42 (% Ctrl) _Mean” value is on record as 85 % Ctrl.

On to `COc1cc(-c2nc3c(Nc4ccc(-n5cnc(C)n5)c(OC)c4)cccc3n2C)ccc1Cl` [Compound 85], for which the IC50 is 10 nM in the test on Aβ42 [1] (setting [5]), 10 nM in the test on Aβ42 [1] (setting [6]), more than 1000 nM in the test on Aβtotal [2] (setting [5]) and more than 3000 nM with Aβtotal [2] (setting [6]). Moreover, the “Aβtotal (% Ctrl) _Mean” value in the test with Aβtotal [3] is on record as 93 % Ctrl. Further, the “Aβ42 (% Ctrl) _Mean” value in the test on Aβ42 [4] is 71 % Ctrl.

As to `COc1cc(Nc2cccc3c2nc(-c2ccc(F)cc2)n3C)ccc1-n1ncnc1C` [Compound 91], the IC50 in the test on Aβ42 [1] (setting [5]) is 36 nM; with Aβ42 [1] (setting [6]), 33 nM; in the test on Aβtotal [2] (setting [5]) it was more than 3000 nM; in the test with Aβtotal [2] (setting [6]), more than 3000 nM. Moreover, the “Aβtotal (% Ctrl) _Mean” value in the test with Aβtotal [3] came out at 94 % Ctrl. Besides, the “Aβ42 (% Ctrl) _Mean” value with Aβ42 [4] is reported as 68 % Ctrl.

Take `Cc1cn(-c2ccc(Nc3cccc4c3nc(-c3ccc(F)cc3)n4C)nn2)cn1` [Compound 95]: the IC50 was 331 nM in the test with Aβ42 [1] (setting [5]), 331 nM with Aβ42 [1] (setting [6]), more than 10000 nM in the test with Aβtotal [2] (setting [5]) and more than 10000 nM in the test on Aβtotal [2] (setting [6]). For the same compound, the “Aβtotal (% Ctrl) _Mean” value in the test with Aβtotal [3] was 95 % Ctrl. Besides, the “Aβ42 (% Ctrl) _Mean” value with Aβ42 [4] was 85 % Ctrl.

The values are drawn from patent US8772504B2, “Substituted benzoxazole, benzimidazole, oxazolopyridine and imidazopyridine derivatives as gamma secretase modulators” (Janssen Pharmaceuticals, Inc., priority 2009, dated 2014).
